According to PubChem BioAssay (NCI):
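A five-concentration, 48-hour dose response in 96-well plates underlies each endpoint, interpolated linearly between surrounding concentrations. TGI marks complete inhibition of growth.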

Legend:
Experiment in all cases: DTP human tumour cell line panel, 48 h
DMS 114 small cell lung = test system: DMS 114 small cell lung
KM20L2 colon = test system: KM20L2 colon
LXFL 529 NSCLC = test system: LXFL 529 NSCLC
XF 498 CNS = test system: XF 498 CNS
HOP-18 NSCLC = test system: HOP-18 NSCLC
SNB-78 CNS = test system: SNB-78 CNS
DLD-1 colon = test system: DLD-1 colon
RXF-631 renal = test system: RXF-631 renal

SMILES	TGI (DMS 114 small cell lung) [µM]	TGI (KM20L2 colon) [µM]	TGI (LXFL 529 NSCLC) [µM]	TGI (XF 498 CNS) [µM]	TGI (HOP-18 NSCLC) [µM]	TGI (SNB-78 CNS) [µM]	TGI (DLD-1 colon) [µM]	TGI (RXF-631 renal) [µM]
N#CCCOCN(CO)c1nc(N(CO)COCCC#N)nc(N(CO)COCCC#N)n1	52.4	61.5	42.5	31.5	59.6	> 100	75.9	
Cc1ccc2ccc3ccc(C)nc3c2n1	1.34	> 100	> 100		> 100	> 100	> 100	
Cc1c2cc[n+](C)cc2c(C)c2c1[nH]c1ccc(Cl)cc12	2.78	46	2.59		22.7	2.56	> 100	
CCOC(=O)C(=O)Nc1c(CC)cccc1C(C)CC (configuration not stated)	> 100	> 100	> 100	> 100	> 100	> 100	> 100	> 100
